In US20060121483A1, “Methods for detecting teneurin signalling and related screening methods” (priority 2002, published 2006):
Where a SMILES comes first, the peptide text is derived from it. [ ]: non-standard residue; d: D form. Nle = CCCC[C@H](N)C(=O)O

How the values were obtained:
Type in all cases: cell-based
teneurin-2 C = experiment: Teneurin-2 C expression level after co-transfection with Zic; conditions: HT1080 cells, transient co-transfection of teneurin-2 C and Zic; lactacystin 10 μM
Experimental: (§1) HT1 080 human fibrosarcoma (ATCC CRL-12012) and COS-7 cells (SV40-transformed kidney fibroblasts from the African green monkey, ATCC CRL-1651) were routinely maintained In DMEM medium (Dulbecco's Modified Eagles Medium) supplemented with 10% FCS (fetal calf serum). For transient transfections the cells were seeded in 6-well plates or 4-well staining dishes (Greiner). Twelve hours later they were transfected with the expression vectors containing the constructs (1 μg of each vector) described above and in Example 2 (Zic), Example 4 and Example 5 by using FUGENE-6 (3 μl, 6 μl or 9 μl for one, two to three, or four different plasmids, respectively). The cells were treated with the following substances at least five hours after transfection: ALLN (25 μg/ml; N-acetyl-leu-leu-norleu-AL; Sigma); tunicamycin (2 μg/ml; Sigma) or lactacystin (10 μM; e.g. Sigma) for four or eight hours prior to harvesting. […]
(§2) The gels were transferred to PVDF (polyvinylidene fluoride) membranes. The proteins were detected by anti-GAL4 antibody (BDAD and BDAD-C) or by anti-teneurin-2 serum (BDAD-CTE and BDAD-CTEY), horseradish peroxidase coupled secondary antibodies and ECL SuperSignal® (Pierce).
In this Example, it was determined whether the zinc finger transcription factor Zic, a vertebrate homologue of opa would influence, or be influenced by, the cytoplasmic domain of teneurin-2. […]

BDAD-CTEY = experiment: BDAD-teneurin-2 fusion GAL4 luciferase reporter (cleavage) assay; conditions: addition of protease inhibitors; ALLN 25 μg/ml, lactacystin 10 μM
Experimental: as §1, with “respectively).” for “respectively). The cells were treated with the following substances at least five hours after transfection: ALLN (25 μg/ml; N-acetyl-leu-leu-norleu-AL; Sigma); tunicamycin (2 μg/ml; Sigma) or lactacystin (10 μM; e.g. Sigma) for four or eight hours prior to harvesting.”
The cells were lysed by adding reporter lysis buffer (Promega). Serial dilutions of the lysed cell suspension were then pipetted into Microlite™ luciferase plates (Dynex Technologies) and the luciferase activity was measured in a Microlumat (LB96P, EG+G Berthold) by automatic injection of luciferin substrate solution (2 mM luciferin, 100 mM ATP in 250 mM glycin pH 7.8, 150 mM MgSO4). […] To stop the enzymatic reaction, three times the sample volume of 1 M Na2CO3 was added and the OD was measured at 405 nm in a microplate reader (BioRad). […]

[1] = system: transcriptional activity of Zic; experiment: Zic / ApoE-luciferase reporter assay in EcR 293 stable transfectants
teneurin-2 CTE = experiment: Western blot of teneurin-2 CTE and its cleavage products; conditions: two cleavage products, one the size of the cytoplasmic domain alone
Experimental: as §1, §2

K3 cells = experiment: Proliferation assay, K3 cells; conditions: 5 day period, crystal violet, ponasterone induces the cytoplasmic domain of teneurin-2
Experimental: (§3) The effect of the expression of the cytoplasmic domain of teneurin-2 on cell proliferation was tested. K3 cells (EcR-293 cells (Invitrogen) containing the stably integrated plasmid pVgRXR (Invitrogen) and the plnd teneurin-2 plasmid encoding the cytoplasmic domain, described in Example 7) were cultured in the presence or absence of ponasterone, which induces expression of the cytoplasmic domain of teneurin-2. Typically, over a 5 day period, parallel cultures were fixed with 4% formaldehyde every day and cell numbers were determined by staining the cells with crystal violet (0.1% in H20). In the presence of ponasterone and thus in the presence of the cytoplasmic domain of teneurin, the K3 cells were retarded in their growth rate to about 50% of the untreated cells. Proliferation of EcR-293 cells without transfected cytoplasmic domain of teneurin-2 was not affected by the addition of ponasterone, proving that the growth retardation was specifically dependent on the presence of the cytoplasmic domain of teneurin-2.

EcR-293 cells = experiment: Proliferation assay, EcR-293 cells; conditions: EcR-293 cells without transfected cytoplasmic domain of teneurin-2
Experimental: as §3

Compound | Zic induced downregulation of teneurin-2 C (teneurin-2 C) | induction of luciferase activity following transfection of BDAD-CTEY (BDAD-CTEY) | stabilization of teneurin-2 C ([1]; ALLN 25 μg/ml) | inhibitory effect of teneurin-2 C on the transcriptional activity of Zic (ApoE-luciferase reporter) ([1]; EcR 293 cells, teneurin-2 C induced by ponasterone, in the presence of ALLN) | stabilisation of cleavage products of CTE (western blot) (teneurin-2 CTE) | growth rate relative to untreated cells (K3 cells) | expression level of the reporter gene (ApoE-luciferase) after induction of teneurin-2 C ([1]; EcR 293 stable transfectants transiently transfected with Zic, ponasterone induces teneurin-2 C) | proliferation (EcR-293 cells)
CC(=O)N[C@@H](CSC(=O)[C@]1([C@@H](O)C(C)C)NC(=O)[C@H](C)[C@@H]1O)C(=O)O [lactacystin] | counteracted | markedly upregulated |  |  |  |  |  | 
CCCC[C@@H](C=O)NC(=O)[C@H](CC(C)C)NC(=O)[C@H](CC(C)C)NC(C)=O [ALLN, N-acetyl-leu-leu-norleu-AL] (Ac-Leu-Leu-[Nle]-aldehyde) |  | markedly upregulated | stabilize teneurin-2 C | more pronounced | stabilisation of two particular cleavage products |  |  | 
CC(C)CC[C@@H](O)[C@](C)(O)[C@H]1CC[C@@]2(O)C3=CC(=O)[C@@H]4C[C@@H](O)[C@@H](O)C[C@]4(C)[C@H]3CC[C@]12C [ponasterone] |  |  |  |  |  | about 50% | marked reduction | not affected
